# According to patent publication US20220275403A1, “Methods And Compositions For Enhancing AAV-Mediated Homologous Recombination Using Ribonucleotide Reductase Inhibitors” (The Board of Trustees of the Leland Stanford Junior …, priority 2019, published 2022):
# Entries after “also recorded” stand apart in the source; their conditions may differ.
# What was measured:
# mouse liver = assay: qPCR of liver DNA and mRNA after Alb-P2A-hF9 vector injection
# [1] = Body weight of treated mice; settings: for body weight: mice, drug ip three sequential days plus rAAV8 Alb/F9, relative to controls
# P Ser139 γH2AX = P Ser139 γH2AX DNA damage response in mouse liver (IHC, Western blot)
# [2] = system: genomic albumin (Alb) locus, mouse liver; assay: In vivo gene targeting with rAAV8 Alb-P2A-hF9 vector, serum hF9 by ELISA; settings: for serum hF9 protein levels: vs vehicle; for serum hF9 levels: 2 months after AAV injection; for hF9 expression (plasma/serum hF9 levels): mice, drug ip three sequential days, rAAV8 Alb/F9 on first day, vs controls
# Method: FIG. 5 Depicts results from in vivo delivery of AAV-based HR in mice. A schematic depicts the injection schedule. rAAV was used to deliver a donor sequence encoding human coagulation factor IX (hF9) into the genomic Albumin (Alb) locus. Plasma hF9 expression in the mouse liver was measured as an assay to detect integration and expression of the integrated donor sequence. […] Experimental plan and time schedule: each drug was given three sequential days by ip injection and AAV was injected at first day with 1e11 vector genome (vg)/g body weight. Serum samples were collected at each time point and hF9 levels were measured by ELISA. Body weight of each mouse were measured to monitor the toxic effect of each drug.
# The efficacy of RNR inhibitors in vivo was tested using an AAV8 vector that incorporates a Alb/F9 targeting sequence. The “Alb/F9” targeting vector was an AAV that included a donor DNA having a nucleotide sequence of interest flanked by homology arms that facilitated integration of the sequence of interest into the genomic albumin (Alb) locus. The nucleotide sequence of interest in this case was a 2A peptide sequence 5′ of a sequence encoding human coagulation factor IX (hF9). Thus, once integrated into the genomic locus, the 2A peptide sequence was present between the endogenous albumin coding sequence and the introduced/integrated hF9 coding sequence such that expression of hF9 mRNA was under the control of the albumin promoter but translation of the transcript led to two separate proteins (albumin and hF9). […] Thus, the lack of efficacy observed based on hF9 liver expression (see FIG. 5) is likely due to low/substantially no HU in the liver (FIG. 6). Given the in vitro HU results and the in vitro and in vivo fludarabine results—in addition to the gemcitabine results of FIG. 7, it is likely and expected that AAV-based HR is enhanced in vivo by HU in organs/tissues other than the liver (e.g., kidney, spleen, heart, lung, testes, brain, etc.).
# B6 mice were received tail vain injections of rAAV8 packaging each vector at the designated dose and were bled at indicated time points. Body weight of mice were measured using Scout pro portable scale (Ohaus) at indicated time points. Serum samples were obtained by centrifuge at 10,000 rpm for 10 minutes and used for ELISA assay of hF9. Hydroxyurea or fludarabine was resuspended in PBS and were injected intraperitoneally with indicated dose/regimen. For BrdU labeling of proliferating mice hepatocytes, BrdU was resuspended in PBS and were intraperitoneally injected for indicated time periods at 200 mg/kg per day for 3 days or 7 days. Diethylnitrosamine solution was prepared using saline and was also intraperitoneally injected for 3 days at 10 or 30 mg/kg. At the end of experiments, mice were anesthetized with isoflurane and perfused transcardially with PBS and then liver tissues were quickly harvested and cut into several pieces. The tissues for mRNA extractions were immediately submerged in RNAlater solution (Sigma) and stored at 4° C. until use. For gDNA or protein extraction, tissues were snap-frozen in liquid nitrogen and stored at −80° C. until use.
# (§1) Mice serum samples were used to quantify hF9 protein expression levels. ELISA for hF9 was performed as previously described with the following antibodies: mouse anti-hF9 IgG primary antibody at 1:1,000 (Sigma Cat#F2645), and polyclonal goat anti-hF9 peroxidase-conjugated IgG secondary antibody at 1:4,000 (Enzyme Research Cat#GAFIX-APHRP).
# hepatocytes of mice = assay: RNAscope in situ hybridization of hF9 mRNA in liver sections; type: in vivo; settings: vs PBS treated mouse
# Huh7 cells = assay: AAV-HR efficiency, AAV-DJ GAPDH/GFP targeting vector, GFP positive cells by FACS; type: cell-based, human; settings: for HR efficiency (GFP positive population by FACS analysis) / AAV-HR efficiency (GFP positive fraction): Huh7; for HR efficiency (GFP positive population by FACS analysis): AAV-DJ GAPDH targeting vector; for AAV-HR efficiency (GFP positive fraction): FIG. 7, drug pretreatment 16 hours, washed out, FACS 14 days after infection
# hepatocytes = assay: BrdU incorporation in mouse liver (hepatocyte proliferation); type: in vivo
# murine ApoE locus = assay: In vivo gene targeting with rAAV8-ApoE-P2A-hF9 vector, serum hF9; parameters: species or system mouse; settings: vs PBS
# Method: Serum was collected at various times across a nearly 60-day time course and hF9 protein levels were determined. Error bars represent s.e.; n=4
# Also examined was whether fludarabine-mediated enhancement of gene targeting was Albumin specific—this was done by designing a vector targeting an alternative genomic locus, ApoE. ApoE is highly and specifically expressed in hepatocytes, similar to Albumin. When 1.0×10^11 vg/mouse of this vector (ApoE-P2A-hF9) was injected with fludarabine treatment, a significant increase in hF9 expression compared to PBS-injected mice was observed (FIG. 12). The fold-increase (3.6-fold at day 54) was similar to findings targeting the Albumin locus.
# as §1
# [3] = system: Albumin gene locus, mouse hepatocytes; assay: CRISPR/Cas9-mediated gene editing in vivo, SaCas9-sgRNA8 plus rAAV8-Alb-P2A-GFP, GFP staining of liver; settings: vs PBS, Alb-P2A-GFP 6.0×10^12 or 3.0×10^13 vg/kg, 2 weeks after AAV injection
smiles,measurement,setting,value
"CCN(CC)N=O [DEN, diethylnitrosamine]",endogenous albumin mRNA expression,"mouse liver; DEN 10 or 30 mg/kg, liver",nearly unchanged
same,total hF9 mRNA expression,"mouse liver; DEN high dose (30 mg/kg), liver, vs vehicle",3.9 fold
same,total hF9 mRNA expression,"mouse liver; DEN low dose (10 mg/kg), liver, vs vehicle",2 fold
same,on-target HR derived fusion Alb-P2A-hF9 mRNA,"mouse liver; DEN, both dose groups, liver, vs vehicle",about 2 fold
same,body weight gains,"[1]; DEN 10 or 30 mg/kg i.p. once per day for three days, vs vehicle, dose-dependent",decreased body weight gains
same,γH2AX staining of liver sections (IHC),"P Ser139 γH2AX; DEN-treated mice, positive control",intense nuclear staining of γH2AX
same,serum hF9 protein levels,"[2]; DEN 10 mg/kg, not statistically significant",~1.5 fold
same,serum hF9 protein levels,"[2]; DEN 30 mg/kg, three weeks post rAAV injection",about 3.6 fold
"Nc1nc(F)nc2c1ncn2[C@@H]1O[C@H](CO)[C@@H](O)[C@@H]1O [Fludarabine, (2R,3S,4S,5R)-2-(6-amino-2-fluoropurin-9-yl)-5-(hydroxymethyl)oxolane-3,4-diol]",endogenous albumin expression,"mouse liver; liver mRNA, fludarabine treatment",not changed
same,on-target integrated Alb-P2A-hF9 fusion mRNA expression,"mouse liver; liver, vs PBS, normalized to Actb",5.1 fold
same,total hF9 mRNA,"mouse liver; liver, vs controls, vector-internal primer set",4.4 fold
same,frequency of hF9 mRNA positive cells,hepatocytes of mice,increased the number of hF9 positive hepatocytes
same,frequency of hF9 mRNA positive cells,hepatocytes of mice; listed as fludarabine,clearly more frequent
same,AAV-HR efficiency in cultured cells,"Huh7 cells; FIG. 4, Hun7 cells",significantly enhanced AAV-HR efficiency
same,increase in HR efficiency,"Huh7 cells; FIG. 4, vs no RNR inhibitor",3.5 fold
same,HR efficiency (GFP positive population by FACS analysis),Huh7 cells,reproducibly increased HR efficiency
same,body weight,[1],without any body weight change
same,body weight,[1]; listed as fludarabine,without any body weight loss
same,γH2AX in liver tissue lysates (Western blotting),P Ser139 γH2AX; acute phase of fludarabine treatment,strong detection of γH2AX
same,γH2AX foci in liver (IHC),"P Ser139 γH2AX; three-day washout after fludarabine, vs immediately proximal to treatment",significantly reduced
same,γH2AX foci in liver (IHC),P Ser139 γH2AX; time proximate to fludarabine treatment,widespread nuclear localized γH2AX foci
same,BrdU incorporation in liver,"hepatocytes; BrdU for three days in washout phase after fludarabine, vs acute phase",significantly greater
same,BrdU labeled nuclei in liver sections,hepatocytes; BrdU given during fludarabine 125 mg/kg three times per day for three days (acute phase),nearly absent
same,serum hF9 levels,"[2]; Flu 125 mg/kg i.p. 3 times per day for five days, vs PBS",6.4 fold
same,hF9 expression / gene targeting efficiency with delayed dose,"[2]; fludarabine 125 mg/kg i.p. three times per day on days 28-30 after rAAV, serum day 54",little to no effect; also recorded: failed to increase the efficiency of gene targeting
same,hF9 expression (plasma/serum hF9 levels),[2],increased hF9 expression
same,hF9 expression (plasma/serum hF9 levels),[2]; listed as fludarabine,significantly and consistently increased serum hF9 levels
same,serum hF9 levels,[2]; single administration (1 day) of fludarabine,about 2 fold
same,fold-increase in hF9 expression,"murine ApoE locus; ApoE-P2A-hF9 1.0×10^11 vg/mouse, day 54",3.6 fold
same,efficiency of gene targeting at the ApoE locus (serum hF9),murine ApoE locus; nearly 60-day time course,increased the efficiency of gene targeting at the ApoE locus
same,number of GFP positive hepatocytes,[3],increased the efficiency of CRISPR/Cas9-mediated gene editing
same,number of GFP positive hepatocytes,[3]; listed as fludarabine,increase of the number of GFP positive hepatocytes
Nc1ccn([C@@H]2O[C@H](CO)[C@@H](O)C2(F)F)c(=O)n1 [Gemcitabine],AAV-HR efficiency (GFP positive fraction),Huh7 cells,enhanced AAV-HR efficiency
same,HR efficiency (GFP positive population by FACS analysis),Huh7 cells,reproducibly increased HR efficiency
"NC(=O)NO [Hydroxyurea, hydroxyurea]",hF9 expression (plasma/serum hF9 levels),[2],did not exhibit enhancement of hF9 expression
"COc1cc([C@@H]2c3cc4c(cc3[C@@H](O[C@@H]3O[C@@H]5CO[C@@H](c6cccs6)O[C@H]5[C@H](O)[C@H]3O)[C@H]3COC(=O)[C@H]23)OCO4)cc(OC)c1O [Teniposide, teniposide]",AAV-HR efficiency (GFP positive fraction),Huh7 cells,no effect
same,HR efficiency (GFP positive population by FACS analysis),Huh7 cells,no effect
